This test deals with hepatic cholesterogenesis. Description: In vivo cholesterogenesis in the liver ([14C]acetate incorporation into digitonin-precipitable hepatic sterols). The conditions noted are these: male Sprague-Dawley rats on 5%-cholestylamine diet for 4 days; dose of 30 mg/kg as suspension in 0.5%-methylcellulose; [14C]acetate i.v. 1 hour after administration, livers removed one hour later; compared to the control group. As to the method: Six-week-old, male Sprague-Dawley rats were given 5%-cholestylamine as a dietary admixture for 4 days. They were administered compound at a dose of 30 mg/kg as a suspension of 0.5%-methylcellulose solution and were intravenously given 2 uCi of [^14C]acetate 1 hour after the administration. One hour later, rats were sacrificed and livers were removed. Hepatic sterols were extracted with petroleum ether after saponification, and the radioactivity of digitonin-precipitable fraction was measured. Example 1-(4) inhibited the hepatic cholesterogenesis by 38% compared to the control group given only […] solution.

With `CCOC(=O)CC1OC(c2ccccc2Cl)c2cc(Cl)ccc2N(CC(C)(C)C)C1=O` (stereo not shown) [Example 1-(4)], the “inhibited the hepatic cholesterogenesis” value is given as 38%.

These data come from patent EP0567026B1, “4,1-Benzoxazepin derivatives as squalene synthase inhibitors and their use in the treatment of hypercholesteremia and as fungicides” (TAKEDA CHEMICAL INDUSTRIES, LTD., priority 1992, dated 1993).
